Several values for one entry are separate records, joined by “and”; a condition that tells them apart may be missing. Equal values may be shown once. Activity calls are given as the source filed them.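 How the source made its calls: active means compounds giving half or more protection of infected cells from virus-caused growth loss, again on retest; inactive means the rest.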 Where a SMILES comes first, the peptide text is derived from it. The star is where a group is joined. Cbz = O=C(OCc1ccccc1)*; CH2Cl = ClC*
Tested on: CEM cells HIV-1 protection, formazan growth assay
Experiment: NCI AIDS Antiviral Assay
Details: for IC50: measured here: growth of uninfected CEM cells
Procedure, shortened: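 Soluble formazan readout of cell growth; CEM cells ± HIV-1; 5 drug concs. ≥50% protection → retest; ≥50% again = moderately active; reproducible 100% = confirmed active.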

SMILES | EC50 [µM] | IC50 | outcome
O=C(O)CN1C(=O)C(=O)c2cc([N+](=O)[O-])ccc21 | > 200 | > 200 µM | 
CC(=O)OC(C)(C)CCC(=O)[C@](C)(O)[C@H]1[C@H](O)C[C@@]2(C)[C@@H]3CC=C4C(C)=C(OC5OC(CO)C(O)C(O)C5O)C(=O)C[C@@H]4[C@]3(C)C(=O)C[C@]12C (stereo partly drawn) | > 200 | > 200 µM | 
C[Si](C)(C)OC1(C#N)C2C3CC4C2C(=O)C2C4C3C21 (stereo not drawn) |  |  | inactive
CSc1ccc(C2OC(=O)c3ccccc32)c2ccccc12 (stereo not drawn) | > 17 | > 17 µM | 
O=c1[nH]c(/C=C(\O)c2ccncc2)nc2ccccc12 | > 2.82 | > 2.82 µM | 
COc1ccc(CC2COC(=O)[C@@H]2Cc2ccccc2)cc1OC (stereo partly drawn) | > 200 | 75.9 µM | 
COc1cnn(-c2ccccc2)c(=O)c1SCc1ccc(Cl)c(Cl)c1 | > 34.7 | 27.5 µM | 
CN(C)C=Nc1nncc2n[nH]nc12 | > 200 | > 200 µM | 
Cc1c(CCC(C)C)oc2cc3oc(CCC(C)C)c(C)c3cc12 | > 70.8 | > 70.8 µM | 
COCCn1cnc2c(Cl)nc(Nc3ccccc3)nc21 | > 200 | 28.8 µM | 
CC(=O)N1C(=O)C(=O)c2ccccc21 | > 200 | > 200 µM | 
NCCN.O=C([O-])CC(O)C(=O)[O-].[Pt+4] (stereo not drawn) | > 200 | 12 µM | 
Brc1cc(C2OCCCO2)ccc1OCc1ccccc1 | > 53.7 | > 53.7 µM | 
COC(=O)CC1NC(=O)[C@]1(C)[C@H](C)O (stereo partly drawn) | > 1230 | > 1230 µM | 
CCOC1OCN(C)CC1(C)C (stereo not drawn) | > 1450 | 79.4 µM | 
CC1CN1c1c(C(=O)/C=C/c2ccccc2)c(-c2ccccc2)nn(C)c1=O (stereo not drawn) | > 67.6 | 12.6 µM | 
CCCCCCSCC(NC(=O)CCC(N)C(=O)O)C(=O)NCC(=O)O (stereo not drawn) | > 24 | > 24 µM | 
COc1ccc2c(c1)OCC1(O)Cc3ccccc3OC21 (stereo not drawn) | > 200 | 107 µM | 
Cc1ccc(OCC2OC(n3cnc4c(Cl)nc(Nc5cc(Cl)cc(Cl)c5)nc43)CC2Oc2ccc(C)cc2)cc1 (stereo not drawn) | > 200 | > 200 µM | 
CCOC(CN=c1nc(N(C)C)ss1)OCC |  |  | inactive
Brc1ccccc1CCc1ncc[nH]1 | > 575 | 234 µM | 
Cn1c(=O)c2c(no[n+]2[O-])c2ccccc21 |  |  | inactive
Cc1ccc2oc(=O)c(C#N)c(/C=C/c3cccc4ccccc34)c2c1 | > 200 | > 200 µM | 

SMILES | EC50 [µM] | IC50 | outcome
O=C(N/N=C(/c1nc2ccc([N+](=O)[O-])cc2[nH]c1=O)C(O)c1ccc([N+](=O)[O-])cc1)c1ccncc1 (stereo not drawn) | > 138 | 129 µM | 
COC(=O)C1=C(OC)C(=P2(c3ccccc3)CC(c3ccccc3)=C2c2ccccc2)C(C(=O)OC)=C1C(=O)OC (stereo not drawn) |  |  | inactive
Cc1ccccc1NC(=O)C(=O)Cc1nc2ccccc2s1 | > 12 | > 12 µM | 
Oc1ccc(C23CC4CC(CC(C4)C2)C3)cc1 |  |  | inactive
COc1ccc(N2C(=O)C3c4[nH]c5ccccc5c4C4CC(C)(C)CC(C)(C)C4C3C2=O)cc1 (stereo not drawn) | > 4.37 | > 4.37 µM | 
COC(=O)C1(Cc2cccc(Cl)c2)CCCCCCN1C(=O)c1ccccc1 (stereo not drawn) | > 112 | 20.4 µM | 
COc1ccc2c(-c3ccc(O)cc3)c(Oc3ccc(Cl)cc3)c(=O)oc2c1 | > 200 | 19.1 µM | 
COc1ccc(/C=C2\CCS(=O)(=O)c3ccccc3C2=O)cc1OC | > 100 | 11.2 µM | 
CCOC(=O)CN1C(=O)c2c(c(C)n(-c3ccccc3)c2C)C1=O | > 200 | > 200 µM | 
COCC1OC(N2C(=O)NC(=O)[C@@H]3C=C4CCCCC4=C[C@@H]32)C(OC)C1OC (stereo partly drawn) | > 200 | 105 µM | 
CN(C)P1(=O)NCC(C)(C)CO1 (stereo not drawn) | > 1290 | > 1290 µM | 
CCOc1ccccc1N=Nc1ccc2oc(=O)c(C(=O)Nc3cccc(C)c3)cc2c1 | > 43.7 | > 43.7 µM | 
Cc1c(C2(c3cc(C(C)C)c(O)c(Br)c3C)OS(=O)(=O)c3ccccc32)cc(C(C)C)c(O)c1Br | > 288 | 97.7 µM | 
CC1(C)OC1COc1c2occc2cc2ccc(=O)oc12 (stereo not drawn) | > 155 | 74.1 µM | 
C1CCC(N2CSCSC2)CC1 | > 200 | 107 µM | 
COc1cccc(/C=N/[N-]C(=O)c2ccncc2)c1[O-].[OH3+].[Zn+2] | > 2.95 | > 2.95 µM | 
Cc1ccc(S(=O)(=O)OCCOCCOCCOCCOCCOS(=O)(=O)c2ccc(C)cc2)cc1 |  |  | inactive
Nc1ccccc1S(=O)(=O)c1ccccc1 |  |  | active
COc1ccc(C2ON(c3ccccn3)CC=C2C)cc1 (stereo not drawn) | > 91.2 | 83.2 µM | 
Nc1n[n+]([O-])c2cnccc2[n+]1[O-] | > 200 | 70.8 µM | 
COc1cc(/C=C\c2ccc(SC)cc2)cc(OC)c1OC | > 42.7 | 0.0724 µM | 
O=C1OC(=O)C2C1C(c1ccc([N+](=O)[O-])cc1)N1C3C(=O)OC(=O)C3C(c3ccc([N+](=O)[O-])cc3)N21 (stereo not drawn) | > 27.5 | > 27.5 µM | 
NCP1(=O)CNC(=O)NC1 | > 1510 | > 1510 µM | 

SMILES | EC50 [µM] | IC50 | outcome
CN(C)P(=O)(N(C)C)N(C)C | > 200 | > 200 µM | 
CO/C(=N\N=C(/C)C(F)(F)F)c1ccncc1 | > 200 | > 200 µM | 
Cc1cn([C@H]2C[C@](C)(CO)N(C)O2)c(=O)[nH]c1=O | > 200 | > 200 µM | 
CC(C)(C)O/N=C/c1cc(NC(=S)c2ccccc2)ccc1Cl | 0.135 | 10.7 µM | 
Cc1ccc([N+](=O)[O-])c2c(NCC(O)CO)ccnc12 (stereo not drawn) | > 33.9 | 26.3 µM | 
CN1CCC2(CC1)C(=NC1CCCCC1)NC(=O)N2c1ccccc1 | > 200 | > 200 µM | 
COC(=O)CC(C)(NS(=O)c1ccc(C)cc1)c1ccccc1 (stereo not drawn) | > 200 | 120 µM | 
CCn1c(=O)c(N=O)c(N)n(CCCO)c1=O | > 200 | > 200 µM | 
NC(=S)NNC(=O)/C(=C/c1ccc(/C=C(\NC(=O)c2ccccc2)C(=O)NNC(N)=S)cc1)NC(=O)c1ccccc1 | > 8.71 | > 8.71 µM | 
COC(=O)C(/C(=N/N)C(=O)Nc1cc(Cl)ccc1Cl)c1nc2ccc([N+](=O)[O-])cc2[nH]c1=O (stereo not drawn) | > 138 | > 138 µM | 
Cn1c2nc(=Nc3ccc(Cl)cc3)n3ccc4ccccc4c3c2c(=O)n1-c1ccccc1 | > 200 | 158 µM | 
CC(C)CC(NC(=O)OCc1ccccc1)C(=O)NC(Cc1ccccc1)C(=O)CCl (stereo not drawn) (Cbz-Leu-Phe-CH2Cl; configuration not given here) | > 20 | 1 µM | 
O=C1c2sccc2[C@H](NC(=O)C(F)(F)F)[C@@H]1Cl | > 200 | > 200 µM | 
CC1=C(C)C2(C#N)C(=O)N3C(=NC(c4ccco4)NC3c3ccco3)C2(C#N)C(c2ccco2)N1 (stereo not drawn) | > 200 | > 200 µM | 
C=C(C)[C@@H]1CC[C@]2(C(=O)O)CC[C@]3(C)[C@H](CC[C@@H]4[C@@]5(C)CC[C@H](O)C(C)(C)[C@@H]5CC[C@]43C)[C@@H]12 | > 200 | 20.9 µM | 
COc1ccc(NC(=O)CSc2nnc(Cc3ccccc3)o2)cc1 | > 100 | 23.4 µM | 
COc1ccc(OC2OC(CO)C(OCc3ccccc3)C(OCc3ccccc3)C2OCc2ccccc2)cc1 (stereo not drawn) | > 200 | 12 µM | 
CC1CN(c2cc3c(cc2F)c(=O)c(C(=O)O)cn3-c2ccc(F)cn2)CC(C)N1 (stereo not drawn) | > 200 | > 200 µM | 
COP(=O)(OC)/C(=C\c1cn(C(c2ccccc2)(c2ccccc2)c2ccccc2)cn1)NC(C)=O | > 200 | 83.2 µM | 
CC(c1ccccc1)C(O)S(=O)(=O)O (stereo not drawn) |  |  | inactive
Clc1nc(Cl)nc(Nc2ncccn2)n1 | > 200 | > 200 µM | 
Cn1c2ccccc2c2c3c(ccc21)C(=O)N(c1ccccc1)C3=O | > 93.3 | 60.3 µM | 
O=c1c2cc(Br)cc(Br)c2[nH]c(=S)n1-c1ccccc1 | > 316 | 126 µM | 

SMILES | EC50 [µM] | IC50 | outcome
O=C1CCC[C@H]2O[C@@H](COCc3ccccc3)C[C@@H]12 | > 200 | 151 µM | 
NC(=S)N/N=C1\CC(c2ccccc2)Nc2ccccc21 (stereo not drawn) |  |  | inactive
COC(=O)Nc1nc2ccc(SC)cc2c(=O)[nH]1 | > 355 | 12.6 µM | 
O=C(Cc1ccc([N+](=O)[O-])cc1)OCC#CCOC(=O)Cc1ccc([N+](=O)[O-])cc1 | > 200 | > 200 µM | 
CN(C)CCNC(=O)c1cccc2c(Nc3ccc(S(=O)(=O)N=C(N)N)cc3)c3ccccc3nc12 |  |  | inactive
CC(=O)OC12CCCC(=O)C1C1CC/C=C\CCC12 (stereo not drawn) | > 170 | 105 µM | 
COC(=O)/C(=N\O)C(C(=O)C=C(C)C)C(=O)C(=O)Nc1ccccc1C (stereo not drawn) | > 692 | > 692 µM | 
O=C1C=CC=CC2CC=C[C@@H](O)C12 (stereo partly drawn) | > 251 | 12 µM | 
CC(=O)OC1c2ccccc2CCCCCCC12OCCO2 (stereo not drawn) | > 200 | 105 µM | 
CC(C)C1=C(O)C2=C(C(=O)C1=O)C1(C)CCCC(C)(C)C1CC2O (stereo not drawn) | > 200 | 14.5 µM and 13.8 µM | 
CCn1c2ccccc2c2nnc(NCCCO)nc21 | > 200 | 141 µM | 
O=C1OC(c2ccccc2)=N/C1=C/c1ccc2c(c1)OCO2 | > 24.5 | > 24.5 µM | 
C=CCCON(C(=O)OC(C)(C)C)c1ccccc1 | > 200 | 57.5 µM | 
CCCc1nc2c(nc1C)C(=O)C=CC2=O | > 832 | 17 µM | 
COC(=O)c1nc(-c2nc(CCNC(=O)OC(C)(C)C)sc2Cl)sc1Cl | > 4.27 | > 4.27 µM | 
CCCCC1(CCO)C(=O)NC(=S)NC1=O | > 200 | > 200 µM | 
CCOC(=O)C(C)NC(=O)NC12CC3CC(CC(F)(C3)C1)C2 (stereo not drawn) | > 219 | > 200 µM | 
COc1cc(/C=C/C(=N\NC(=O)c2ccccc2)c2sc(Nc3ccc(Cl)c(Cl)c3)nc2C)ccc1O | > 46.8 | 38.9 µM | 
CSCCC(NOC(=O)Cc1ccccc1)P(=O)(O)c1ccccc1 (stereo not drawn) | 195 | 240 µM | 
CCOC(=O)/C=C/c1cccc(Cl)c1 | > 24.5 | > 24.5 µM | 

From PubChem BioAssay AID179 (DTP/NCI, 2004)
